Results as given in paper PMC8214651, “Construction and characterization of a functional chimeric laccase from metagenomes suitable as a biocatalyst” (AMB Express, 2021).

Tested on: T1, Lcc120-3 (Mic-mg-MCO120-3)
T1 construct: 98 residues Micromonospora sp; MP36 MCO N-terminus (parent WP_148798198.1) + 387-residue metagenomic core + 54 residues MP36 MCO C-terminus; MBP deleted; E. coli BL21(DE3)
Test: spectrophotometric oxidation at […] nm, Lineweaver-Burk plot
Type: biochemical
Conditions: 50 mM potassium phosphate pH 7.0, 30 °C, purified enzyme without MBP; read-out: Lcc120-3 (Mic-mg-MCO) / Km (mM)/Vmax (U/mg protein)/kcat (s^-1)

COc1cccc(OC)c1O [DMP, 2,6-dimethoxyphenol]
Km: 10.5 mM
